Measurements as given in patent US20140377201A1, “SKIN-WHITENING COMPOSITION CONTAINING EXTRACTS FROM TREES INCLUDING PAPER MULBERRY” (Amorepacific Corporation, priority 2010, published 2014).

Key:
B16/F10 melanoma cells = test: Melanin production inhibitory activity using B16/F10 melanoma cells; assay type: cell-based; conditions: 50 μg/ml of arbutin; incubated for 3 days; absorbance at 405 nm
Description: Samples, containing 0.001 wt % of each of the extracts of Examples 1 to 9 and Comparative Examples 1 to 3, and 50 /μg/ml of arbutin, were used as test materials. Each of the test materials was added to a culture of B16/F10 melanoma cells (Korean Cell Line Bank) at a given concentration and incubated for 3 days. The medium as removed, and the cells were washed with PBS and lysed with 1N NaOH, and the absorbance at 405 nm was measured. As a control, cells to which no test material was added were used. The skin whitening effects of the test materials were measured by measuring the melanin production inhibitory activity of each test material in comparison with the content of melanin in the control. Melanin production inhibition (%) was calculated using the following equation 2, and the calculation results are shown in Table 2 below.
Melanin production inhibition (%)=100−(absorbance of each test material/absorbance of control)×100 [Equation 2]

[1] = test system: tyrosinase (SIGMA) extracted from mushrooms; test: Tyrosinase inhibitory effect; assay type: biochemical; conditions: positive control, 40 μg/ml of kojic acid; substrate tyrosine; 37° C.; absorbance at 475 nm
Description: The enzyme tyrosinase used in this Test Example was a tyrosinase (SIGMA) extracted from mushrooms. First, the substrate tyrosine was dissolved in distilled water at a concentration of 0.3 mg/ml, and 1.0 ml of the solution was placed in each test tube. Then, 1.0 ml of potassium-phosphate buffer (0.1 M, pH 6.8) and 0.7 ml of distilled water were added thereto, thereby preparing a mixed solution. […] Then, the test tube containing the reaction solution was quenched in ice water to stop the reaction, and the absorbance at 475 nm was measured with a photoelectric spectrophotometer. Then, the tyrosinase inhibitory activity of each of the extracts was calculated using the following equation 1, and the results of the calculation are shown in Table 1 below. Tyrosinase inhibition (%)=100−(absorbance of each extract/absorbance of control×100 [Equation 1]

| Structure (SMILES) | Melanin production inhibition (%) (B16/F10 melanoma cells) | Tyrosinase inhibition (%) [1] [%] |
| --- | --- | --- |
| OC[C@H]1O[C@@H](Oc2ccc(O)cc2)[C@H](O)[C@@H](O)[C@@H]1O [Arbutin, arbutin] | 48 | – |
| O=c1cc(CO)occ1O [Kojic acid, kojic acid] | – | 51 |
